According to patent US6030950A, “Pharmaceutical therapeutic use of glutathione derivative” (priority 1987, dated 2000):
Like-named read-outs stand apart in the source and are kept apart here.

Legend:
[1] = cited from earlier work
[2] = test system: malignant melanoma from man; settings: 300 mg three times per week
Description: 2.4) Experiment with 40 healthy gray mice after transplantation of a malignant melanoma from person.
Forty healthy gray mice were inoculated with 10^6 malignant melanoma cells each.
III.1 Experiment with 40 healthy gray mice after transplantation of a malignant melanoma from person.

[3] = human blood, oxygen deficiency stress, 600 mg slowly intravenously, 10 minutes after administration; n=50
Method: 2.2) Self-experiment on man to improve and/or normalize the redox status of the blood:
After a defined oxygen deficiency stress, the same parameters were determined in human blood as in the trial described above. In all 50 trials were carried out on different days
After that, glutathione was slowly administered intravenously in an amount of 600 mg.
Boundary conditions: Temperature of 20° C., air pressure of 758-770 mm Hg.

human erythrocytes = settings: incubation with 0.5 mg of reduced glutathione, 37° C., 30 minutes; 10 mL heparinised venous blood; n=20, average and standard deviation
Method: 1.1) In vitro experiment with human erythrocytes to improve and normalize the redox behavior:
Human venous blood (10 mL) was taken from each of 20 patients with different diseases and prevented from clotting by the addition of heparin.

[4] = target: glucose-6-phosphate dehydrogenase (Homo sapiens, UniProt P11413); settings: incubation with 0.5 mg reduced glutathione, 37° C., 30 minutes; n=22, average and standard deviation
Sequence of glucose-6-phosphate dehydrogenase (P11413 2-515 limits assumed): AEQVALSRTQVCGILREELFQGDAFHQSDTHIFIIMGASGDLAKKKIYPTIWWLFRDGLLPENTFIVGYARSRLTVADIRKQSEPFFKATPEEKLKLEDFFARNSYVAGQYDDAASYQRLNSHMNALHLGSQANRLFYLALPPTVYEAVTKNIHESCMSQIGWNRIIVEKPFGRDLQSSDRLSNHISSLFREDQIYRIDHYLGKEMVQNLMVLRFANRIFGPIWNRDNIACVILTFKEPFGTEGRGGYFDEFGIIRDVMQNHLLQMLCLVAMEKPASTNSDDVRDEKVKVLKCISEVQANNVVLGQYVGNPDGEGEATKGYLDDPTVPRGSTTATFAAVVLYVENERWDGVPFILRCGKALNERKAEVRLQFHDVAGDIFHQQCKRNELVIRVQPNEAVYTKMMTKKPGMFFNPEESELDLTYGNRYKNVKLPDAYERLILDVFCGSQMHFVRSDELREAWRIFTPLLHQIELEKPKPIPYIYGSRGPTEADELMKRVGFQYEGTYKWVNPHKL
Description: (§1) 1.2) In vitro experiment on cell systems of human erythrocytes Under the same conditions as those for the experiment described above, the enzymes, glucose-6-phosphate dehydrogenase and glutathione reductase, from the erythrocytes of 22 patients, were investigated in vitro. n=22 (average value and standard deviation are given)

glutathione reductase = glutathione reductase (Homo sapiens, UniProt P00390); settings: incubation with 0.5 mg reduced glutathione, 37° C., 30 minutes; n=22, average and standard deviation
Sequence of glutathione reductase (P00390 44-522): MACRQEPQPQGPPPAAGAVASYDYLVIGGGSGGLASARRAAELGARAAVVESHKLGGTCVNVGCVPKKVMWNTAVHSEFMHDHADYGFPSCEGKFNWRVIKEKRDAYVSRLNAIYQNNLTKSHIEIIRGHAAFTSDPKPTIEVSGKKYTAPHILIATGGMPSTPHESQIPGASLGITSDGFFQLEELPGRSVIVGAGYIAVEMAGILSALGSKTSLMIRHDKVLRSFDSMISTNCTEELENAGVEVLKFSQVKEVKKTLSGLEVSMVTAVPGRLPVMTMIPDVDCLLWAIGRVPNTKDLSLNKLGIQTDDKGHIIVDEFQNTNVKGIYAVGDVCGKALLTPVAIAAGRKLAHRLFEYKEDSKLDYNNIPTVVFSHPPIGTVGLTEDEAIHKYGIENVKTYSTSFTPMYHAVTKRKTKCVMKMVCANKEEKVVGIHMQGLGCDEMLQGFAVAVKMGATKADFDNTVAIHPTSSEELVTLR
Description: as §1

[5] = in vivo
[6] = rabbit ear venous blood, oxygen deficiency stress, 10 mg/kg, 5-10 minutes after administration; n=30
Method: 2.1) Animal Experiments with rabbits to improve and/or normalize the redox status of the blood:
In 5 different rabbits, the following parameters were measured by the method and with the instrument of VINCENT in 30 experiments in venous blood:
redox potential E H or electron potential: rH2
The values were measured in the venous blood of the ear after a defined oxygen deficiency stress.
The following values were determined 5-10 minutes after the glutathione one was administered:
Boundary conditions: Temperature of 20° C., air pressure of 767 mm Hg.

[7] = cited from earlier work; remark: listed apart in the source

N[C@@H](CCC(=O)N[C@@H](CS)C(=O)NCC(=O)O)C(=O)O [reduced glutathione, gamma-glutamyl-cysteinyl-glycine]
pK value for COOH(1) ([1]; COOH(1)): 3.53
pK value for COOH(2) ([1]; COOH(2)): 2.12
pK value for NH3+ ([1]; NH3^+): 8.66
pK value for SH ([1]; SH): 9.66
further animals died within 20 days ([2]; 30 mice, 10^6 melanoma cells): five
further animals died within 30 days ([2]; 30 mice, 10^6 melanoma cells): seven
animals died within 15 days ([2]; 30 mice, 10^6 melanoma cells, untreated controls died within 8-12 days): three
share of treated animals that survived the period of observation ([2]; 30 days after inoculation): 50%
animals that survived the period of observation ([2]; of 30 treated mice, 30 days after inoculation): Fifteen
redox potential or electron potential rH2 [3]: 23.1 ± 1.4
content of intraerythrocytic reduced glutathione, value of incubation (human erythrocytes): 1.99±0.15 mU
glucose-6-phosphate dehydrogenase, value after incubation [4]: 179±16 mU/10^9 erys.
glutathione reductase, value after incubation (glutathione reductase): 11.3±1.2 U/10^11 erys.
toxicity of the therapeutic dosage [5]: nontoxic
redox potential or electron potential rH2 [6]: 21.8 ± 0.95
solubility in ethanol ([7]; ethanol): soluble
solubility in water and physiological salt solution ([7]; water and physiological salt solution): readily soluble
